Measured values from PubChem BioAssay AID248 (DTP/NCI, 2004).
“And” between values parts separate entries of the source, which are not always exact repeats. Equal entries are not always repeated. Toxic doses and inconclusive results are not listed. Cut-off read from the data, not from the text of the source: active = T/C of 150% or more; inactive = T/C below 125%.

Tested on: L1210 leukemia ip in BDF1 mice, survival T/C
Assay: NCI In Vivo Anticancer Drug Screen. Data for tumor model L1210 Leukemia (intraperitoneal) in B6D2F1 (BDF1) mice
Settings: endpoint: mean survival time, higher = longer survival
In short: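 Value reflects the ratio of survival in compound-treated mice to survival in vehicle-treated controls, with both groups carrying the same transplanted tumor.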

[1] = dose: 100.0 mg/kg/injection, schedule: Q01DX009 (ip), vehicle: Klucel (hydroxypropylcellulose) (HPC)
[2] = dose: 100.0 mg/kg/injection, schedule: Q04DX003 (ip), vehicle: Klucel (hydroxypropylcellulose) (HPC)
[3] = dose: 100.0 mg/kg/injection, schedule: Q04DX003 (ip), vehicle: saline with Tween-80
[4] = dose: 200.0 mg/kg/injection, schedule: Q04DX003 (ip), vehicle: Klucel (hydroxypropylcellulose) (HPC)

Measured: T/C

[NH-]C(CC(N)=O)C(=O)O.[NH-]C(CC(N)=O)C(=O)O.[Ni+2] (stereo unspecified)
inactive: dose: 6.25 mg/kg/injection, schedule: Q01DX009 (ip), vehicle: water 92 % of control | dose: 12.5 mg/kg/injection, schedule: Q01DX009 (ip), vehicle: water 91 % of control | dose: 25.0 mg/kg/injection, schedule: Q01DX009 (ip), vehicle: water 88 % of control | dose: 25.0 mg/kg/injection, schedule: Q04DX002 (ip), vehicle: saline 110 % of control | dose: 50.0 mg/kg/injection, schedule: Q04DX002 (ip), vehicle: saline 100 % of control | dose: 50.0 mg/kg/injection, schedule: Q04DX003 (ip), vehicle: water 112 % of control | dose: 100.0 mg/kg/injection, schedule: Q04DX002 (ip), vehicle: saline 123 % of control | dose: 100.0 mg/kg/injection, schedule: Q04DX003 (ip), vehicle: water 117 % of control

COC1C(O)C(O)C(O)C(O)C1OS(=O)(=O)c1ccc(C)cc1 (stereo unspecified)
inactive: dose: 375.0 mg/kg/injection, schedule: Q01DX001 (ip), vehicle: carboxymethylcellulose (CMC) 105 % of control | dose: 750.0 mg/kg/injection, schedule: Q01DX001 (ip), vehicle: carboxymethylcellulose (CMC) 107 % of control | dose: 1500.0 mg/kg/injection, schedule: Q01DX001 (ip), vehicle: carboxymethylcellulose (CMC) 98 % of control

O=C(O)c1cccc(N2C(=O)C=CC2=O)c1
inactive: dose: 25.0 mg/kg/injection, schedule: Q04DX002 (ip), vehicle: Klucel (hydroxypropylcellulose) (HPC) 101 % of control | dose: 50.0 mg/kg/injection, schedule: Q04DX002 (ip), vehicle: Klucel (hydroxypropylcellulose) (HPC) 101 % of control

C=CCOC(=O)c1ccco1
inactive: dose: 25.0 mg/kg/injection, schedule: Q01DX009 (ip), vehicle: Klucel (hydroxypropylcellulose) (HPC) 98 % of control | dose: 50.0 mg/kg/injection, schedule: Q01DX009 (ip), vehicle: Klucel (hydroxypropylcellulose) (HPC) 106 % of control | [1] 94 % of control and 96 % of control

CCCCCCCN(CCCCCCC)C(C)C(=O)c1ccc2cc(Br)c3ccccc3c2c1 (stereo unspecified)
inactive: dose: 100.0 mg/kg/injection, schedule: Q01DX001 (ip), vehicle: alcohol 106 % of control | dose: 200.0 mg/kg/injection, schedule: Q01DX001 (ip), vehicle: alcohol 97 % of control | dose: 400.0 mg/kg/injection, schedule: Q01DX001 (ip), vehicle: alcohol 100 % of control

O=C(O)c1cc([N+](=O)[O-])ccc1F
inactive: dose: 75.0 mg/kg/injection, schedule: Q01DX001 (ip), vehicle: acetone 95 % of control | dose: 150.0 mg/kg/injection, schedule: Q01DX001 (ip), vehicle: acetone 103 % of control

NC(=O)c1ccc([N+](=O)[O-])s1
inactive: dose: 25.0 mg/kg/injection, schedule: Q04DX003 (ip), vehicle: saline with Tween-80 98 % of control | dose: 50.0 mg/kg/injection, schedule: Q04DX003 (ip), vehicle: saline with Tween-80 104 % of control | [2] 100 % of control | [3] 96 % of control

CN(C)CCCCCO
inactive: dose: 25.0 mg/kg/injection, schedule: Q01DX009 (ip), vehicle: saline with Tween-80 96 % of control | dose: 50.0 mg/kg/injection, schedule: Q01DX009 (ip), vehicle: saline with Tween-80 102 % of control and 87 % of control | dose: 100.0 mg/kg/injection, schedule: Q01DX009 (ip), vehicle: saline with Tween-80 91 % of control | [3] 97 % of control | dose: 200.0 mg/kg/injection, schedule: Q01DX009 (ip), vehicle: saline with Tween-80 100 % of control | dose: 200.0 mg/kg/injection, schedule: Q04DX003 (ip), vehicle: saline with Tween-80 100 % of control

Cc1cc(C)c(NC(=O)CC#N)c(C)c1
inactive: dose: 100.0 mg/kg/injection, schedule: Q04DX002 (ip), vehicle: saline with Tween-80 90 % of control | dose: 200.0 mg/kg/injection, schedule: Q04DX002 (ip), vehicle: saline with Tween-80 90 % of control | dose: 400.0 mg/kg/injection, schedule: Q04DX002 (ip), vehicle: saline with Tween-80 90 % of control

O=C(N/N=C/c1ccc(Cl)cc1Cl)c1cccc2ccccc12
inactive: dose: 100.0 mg/kg/injection, schedule: Q01DX001 (ip), vehicle: saline 92 % of control | dose: 400.0 mg/kg/injection, schedule: Q01DX001 (ip), vehicle: saline 86 % of control

CC(C)N(C(C)C)C(C)CCNc1c2ccccc2nc2cc(Cl)ccc12 (stereo unspecified)
inactive: dose: 1.88 mg/kg/injection, schedule: Q01DX Z (ip), vehicle: methylcellulose (MC) 113 % of control | dose: 3.0 mg/kg/injection, schedule: Q01DX Z (ip), vehicle: methylcellulose (MC) 117 % of control | dose: 3.75 mg/kg/injection, schedule: Q01DX Z (ip), vehicle: methylcellulose (MC) 115 % of control | dose: 5.0 mg/kg/injection, schedule: Q01DX Z (ip), vehicle: methylcellulose (MC) 116 % of control | dose: 6.0 mg/kg/injection, schedule: Q04DX003 (ip), vehicle: saline 98 % of control | dose: 7.5 mg/kg/injection, schedule: Q01DX Z (ip), vehicle: methylcellulose (MC) 110 % of control | dose: 12.0 mg/kg/injection, schedule: Q04DX003 (ip), vehicle: saline 102 % of control | dose: 15.0 mg/kg/injection, schedule: Q01DX Z (ip), vehicle: methylcellulose (MC) 109 % of control | dose: 24.0 mg/kg/injection, schedule: Q04DX003 (ip), vehicle: saline 105 % of control

O=[N+]([O-])c1ccc(S(=O)(=O)Oc2ccccc2)cc1
inactive: dose: 50.0 mg/kg/injection, schedule: Q01DX009 (ip), vehicle: saline sonified 93 % of control | dose: 100.0 mg/kg/injection, schedule: Q01DX009 (ip), vehicle: saline sonified 103 % of control | [2] 98 % of control | dose: 200.0 mg/kg/injection, schedule: Q01DX009 (ip), vehicle: saline sonified 92 % of control | [4] 91 % of control

N=C1C(=O)c2ccccc2-c2ccccc21
inactive: dose: 100.0 mg/kg/injection, schedule: Q01DX001 (ip), vehicle: Klucel (hydroxypropylcellulose) (HPC) 97 % of control | dose: 200.0 mg/kg/injection, schedule: Q01DX001 (ip), vehicle: Klucel (hydroxypropylcellulose) (HPC) 98 % of control | dose: 400.0 mg/kg/injection, schedule: Q01DX001 (ip), vehicle: Klucel (hydroxypropylcellulose) (HPC) 98 % of control

CC(=O)Oc1cc(OC(C)=O)c2c(OC(C)=O)c3c(OC(C)=O)cc(C)cc3cc2c1
inactive: dose: 5.0 mg/kg/injection, schedule: Q01DX001 (ip), vehicle: saline 112 % of control | dose: 10.0 mg/kg/injection, schedule: Q01DX001 (ip), vehicle: saline 113 % of control

Cc1ccc([N+](=O)[O-])cc1NC(=O)Nc1ccc(S(N)(=O)=O)cc1
inactive: [1] 97 % of control | [2] 96 % of control | dose: 200.0 mg/kg/injection, schedule: Q01DX009 (ip), vehicle: Klucel (hydroxypropylcellulose) (HPC) 98 % of control | [4] 92 % of control | dose: 400.0 mg/kg/injection, schedule: Q01DX009 (ip), vehicle: Klucel (hydroxypropylcellulose) (HPC) 103 % of control | dose: 400.0 mg/kg/injection, schedule: Q04DX003 (ip), vehicle: Klucel (hydroxypropylcellulose) (HPC) 91 % of control
